Source: patent publication US8580776B2, “Compositions and methods for treating neurodegenerating diseases” (The Board of Trustees of the University of Illinois, priority 2007, dated 2013)

Test system: neprilysin (NEP)
Assay: QPCR of neprilysin mRNA in brain samples
Assay type: in vivo, mice
Conditions: cortical samples, versus vehicle
Method: Total cytoplasmic RNA from tissues was isolated using TRIZOL reagent, (Invitrogen/GIBCO); aliquots were converted to cDNA using random hexamer primers, and mRNA levels were estimated by quantitative touchdown PCR (QPCR). PCR conditions were 35 cycles of denaturation at 94° C. for 10 s; annealing at 58-64° C. for 15 s; and extension at 72° C. for 20 s on a Corbett Rotorgene Real-Time PCR unit (Corbett, Australia). PCR was done using Taq DNA Polymerase (Invitrogen), and contained SYBR Green (SybrGreen1 10,000× concentrate, diluted 1:10,000; Molecular Probes, Eugene, Oreg.). Relative mRNA concentrations were calculated from the takeoff point of reactions using manufacturer's software, and were normalized to α-tubulin, β-actin, and glyceraldehyde-3-phosphate dehydrogenase (GDH). Melting curve analysis and agarose gel electrophoresis ensured production of single and corrected size products. The primers used were: […]
Comparative real time RT-PCR (or quantitative PCR, QPCR) was used to measure mRNA levels of the Aβ degrading enzymes neprilysin (Nep) and insulin degrading enzyme (IDE) in brain samples from vehicle and DSP4 treated mice (FIG. 4A). […] To assess the effects of dose, mouse neuronal N2A cells were incubated with increasing does of NA for 24 hr after which NEP activity was measured (FIG. 4D, data is mean±sd and is from n=3 samples). […]

CCN(CCCl)Cc1ccccc1Br [DSP4, N-(2-chloroethyl)-N-ethyl-2-bromobenzylamine]
reduction of NEP mRNA levels: approximately 20%
